Data taken from patent US20210205264A1, “USE OF DELTA-TOCOTRIENOL FOR TREATING CANCER” (H. LEE MOFFITT CANCER CENTER & RESEARCH INSTITUTE INC., priority 2018, published 2021).
One block for each compound: values may come before it. Peptide text beside a SMILES is read from it. * marks the point of attachment. Cbz = O=C(OCc1ccccc1)*

Key:
hCAS [1] = biological target: T1, hCAS (Homo sapiens, UniProt P55060); experiment: Competitive affinity-isolation of hCAS in MiaPaCa-2 cell lysate; type: binding; conditions: excess free compound
T1 construct: endogenous in cells; host or cells: MiaPaCa-2 human pancreatic cancer cells
T1 sequence (P55060 1-971): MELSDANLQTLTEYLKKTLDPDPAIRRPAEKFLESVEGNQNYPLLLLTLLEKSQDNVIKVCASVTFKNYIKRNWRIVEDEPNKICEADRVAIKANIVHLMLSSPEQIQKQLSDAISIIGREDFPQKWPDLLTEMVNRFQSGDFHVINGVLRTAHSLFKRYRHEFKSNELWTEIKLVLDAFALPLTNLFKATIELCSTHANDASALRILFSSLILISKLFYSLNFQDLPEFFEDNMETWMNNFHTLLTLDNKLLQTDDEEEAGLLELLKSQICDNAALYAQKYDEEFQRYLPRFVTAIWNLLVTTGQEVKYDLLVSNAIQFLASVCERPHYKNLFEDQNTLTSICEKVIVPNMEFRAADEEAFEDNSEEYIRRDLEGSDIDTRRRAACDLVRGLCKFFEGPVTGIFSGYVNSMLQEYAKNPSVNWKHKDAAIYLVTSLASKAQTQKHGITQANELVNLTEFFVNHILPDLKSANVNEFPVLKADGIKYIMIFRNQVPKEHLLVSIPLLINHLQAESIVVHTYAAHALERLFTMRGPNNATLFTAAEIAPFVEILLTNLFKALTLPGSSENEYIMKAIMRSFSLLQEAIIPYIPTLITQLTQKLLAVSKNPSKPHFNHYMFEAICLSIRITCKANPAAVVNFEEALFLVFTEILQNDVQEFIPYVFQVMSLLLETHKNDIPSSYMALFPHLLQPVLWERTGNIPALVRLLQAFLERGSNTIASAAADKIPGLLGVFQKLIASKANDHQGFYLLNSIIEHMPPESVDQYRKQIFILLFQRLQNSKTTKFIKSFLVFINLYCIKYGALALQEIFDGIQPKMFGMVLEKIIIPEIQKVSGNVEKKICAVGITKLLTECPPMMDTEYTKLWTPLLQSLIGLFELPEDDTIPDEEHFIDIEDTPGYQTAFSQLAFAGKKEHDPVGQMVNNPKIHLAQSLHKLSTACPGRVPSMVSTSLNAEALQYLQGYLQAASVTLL
Procedure: This experiment used a synthetic biotin-δ-tocotrienol conjugate (shown below to inhibit growth activity of cultured MiaPaca-2 human pancreatic cancer cells) to confirm affinity-isolation of hCAS. To confirm that δ-T3 binds to hCAS in intact cells, biotinylated δ-T3 (B-δ-T3) was prepared by chemically coupling the —OH group of δ-T3 to the —COOH of biotin using a PEG-iodoactamide linker (FIG. 18). […] Affinity-isolation of hCAS was inhibited in the presence of free δ-tocotrienol but not with free δ-tocopherol.

MiaPaCa-2 cell = MiaPaCa-2 cell viability at increasing concentrations; type: cell-based, human; conditions: increasing concentrations
hCAS [2] = biological target: T1, hCAS; experiment: Streptavidin bead capture of hCAS from treated MiaPaCa-2 cells; type: binding; conditions: MiaPaCa-2 cells treated 24 hours
Procedure: To confirm that δ-T3 binds to hCAS in intact cells, biotinylated δ-T3 (B-δ-T3) was prepared by chemically coupling the —OH group of δ-T3 to the —COOH of biotin using a PEG-iodoactamide linker (FIG. 18).
MiaPaCa-2 human pancreatic cancer cells were treated for 24 hours with biotin alone (B), B-δ-T3 or B-TOCOPH. The cells were then lysed, and the lysates incubated with streptavidin beads, and the captured proteins processed for Western blotting.

CCSCs [3] = experiment: miRNA profiles in CCSCs; type: cell-based, human; conditions: 24-hour treatment; aspirin 5 mM, d-T3 10 μM
From the text: Given the results, and without intending to be bound by any theory, it appears that the induction of apoptosis can be one mechanism by which d-T3 prevents CRC and augments CRC prevention activity. BID knockout can diminish this effect. The biorepository as well as materials generated from studies can be used to explore other mechanisms of d-T3 action such as anti-inflammatory, mediation of the immune system, anti-angiogenesis, and alterations in metabolism. To this end, miRNA profiles were conducted that are altered with d-T3, aspirin, and d-T3 with aspirin treatment in CCSCs. To discover early miRNAs that are likely to influence activity, these cells were deliberately treated with doses of these agents at a duration when there were no phenotypic changes of apoptosis.

colon polyps = conditions: patients with stage I-III colon cancer following treatment; 27% without aspirin; cited from earlier work
BID = experiment: Activation of BID (tBID) by Western blotting in CCSCs; type: cell-based, human; conditions: 24-hour treatment; aspirin 5 mM, d-T3 50 μM
Procedure: (§1) FIGS. 10A, 10B, 10C, and 10D show induction of apoptosis measured by flow cytometry (FIG. 10A) and confocal microscopy (FIG. 10B) in CCSCs after treatment with vehicle, aspirin, d-T3, and aspirin+d-T3. Effect of BID inhibitor on apoptosis in CCSCs after treatment with aspirin or d-T3 (FIG. 10C). Induction oft-BID in CCSCs after treatment with vehicle, aspirin, d-T3, and aspirin+d-T3 (FIG. 10D).
d-T3 can induce selective killing of CCSCs through the BH3 interacting-domain death agonist (BID). […] It should be noted that these in vitro results are consistent with the in vivo observation of the selective induction of apoptosis in APC mutant colon crypt cells in the ApcMin/+ mice but not in the normal intestinal cells of the AOM rat CRC model or NOD/SCID mice. […] Although the proapoptotic activity of d-T3 is a consistent observation of d-T3 anticancer activity in all of the published reports, the mechanism by which d-T3 induces apoptosis is poorly understood. Apoptotic death is regulated by the death receptor (extrinsic) and mitochondrial (intrinsic) pathways. […] To obtain preliminary information regarding the mechanisms by which d-T3 induces apoptosis in CCSCs, the activation of BID was measured after 24-hour treatment with vehicle, aspirin (5 mM), d-T3 (50 μM), and aspirin combined with d-T3 in CCSCs by Western blotting.

ApcMin/+ mice = experiment: Adenoma (intestinal polyp) formation in ApcMin/+ mice; type: in vivo
From the text: FIGS. 1A and 1B show the number of intestinal polyps (FIG. 1A) and H&E staining of polyps (FIG. 1B) in ApcMin/+ mice treated with vehicle (V), aspirin (Asp), d-T3, and combination of aspirin+d-T3. Black dots in FIG. 1B point out polyps in the intestine. Although substantial preclinical evidence exists regarding the preventive activity of d-T3 and g-T3 in various types of cancers, there is no report of d-T3 prevention of colon cancer despite evidence of activity in colon cell lines and xenograft models. […] Treatment with aspirin alone reduced adenoma formation by 38%, and treatment with d-T3 alone reduced adenoma formation by 44%, while treatment with the combination of aspirin and d-T3 reduced adenoma formation by 58%.

[4] = system: intestinal stem cells of ApcMin/+ mice; experiment: Caspase 3 staining of intestinal crypts in ApcMin/+ mice; type: in vivo; conditions: small intestinal crypts of ApcMin/+ mice
From the text: Although substantial preclinical evidence exists regarding the preventive activity of d-T3 and g-T3 in various types of cancers, there is no report of d-T3 prevention of colon cancer despite evidence of activity in colon cell lines and xenograft models. […] Treatment with aspirin alone reduced adenoma formation by 38%, and treatment with d-T3 alone reduced adenoma formation by 44%, while treatment with the combination of aspirin and d-T3 reduced adenoma formation by 58%.

human CCSCs = experiment: Orthotopic (cecum) model of luciferase expressing human CCSCs in NOD-SCID mice; type: in vivo
Procedure: FIGS. 8A, 8B, 8C, and 8D show growth of cecal tumor volume (FIGS. 8A & 8B) and liver metastasis score (FIGS. 8C & 8D) in orthotopic model of CCSCs after treatment with vehicle, aspirin, d-T3, and aspirin+d-T3.
In vivo model of human CCSC were developed by implanting the stably transfected luciferase expressing CCSCs in the cecum of NOD-SCID mice. In this model, tumor growth, metastasis, and survival are monitored twice weekly by IP injection of luciferin (150 mg/kg body weight) and imaged using the IVIS 200 Bioluminescence imaging system. […] These findings strongly indicate that d-T3 targets CCSCs and enhances the ability of aspirin to target these cells.

β-catenin = β-catenin immunofluorescence and Western blot in CCSCs; type: cell-based, human; conditions: MG132 25 μM, 3-methyladenine 10 mM, caspase 3 inhibitor 20 μM, calpain II inhibitor 25 μM
From the text: FIGS. 9A, 9B, 9C, and 9D show quantification of β-catenin in the nucleus and cytoplasm of CCSCs with confocal microscopy (FIGS. 9A & 9B) after treatment with vehicle, aspirin, d-T3, and aspirin+d-T3.
As noted above, stability of the β-catenin complex by inactivation of APC leads to stabilization and nuclear translocation of β-catenin and to transcriptional activation of β-catenin target genes such as c-Myc and cyclin D1. […] Furthermore, d-T3 inhibition of CCSCs is associated with the downregulation of β-catenin, c-Myc, cyclin D1, and survivin as measured by Western blot in CCSCs (FIG. 9D).

CCSCs [5] = experiment: Annexin V FITC/PI flow cytometry apoptosis assay in CCSCs; type: cell-based, human; conditions: CCSCs
Procedure: as §1
d-T3 can induce selective killing of CCSCs through the BH3 interacting-domain death agonist (BID). […] It should be noted that these in vitro results are consistent with the in vivo observation of the selective induction of apoptosis in APC mutant colon crypt cells in the ApcMin/+ mice but not in the normal intestinal cells of the AOM rat CRC model or NOD/SCID mice. […] Although the proapoptotic activity of d-T3 is a consistent observation of d-T3 anticancer activity in all of the published reports, the mechanism by which d-T3 induces apoptosis is poorly understood. Apoptotic death is regulated by the death receptor (extrinsic) and mitochondrial (intrinsic) pathways. These 2 pathways crosstalk under certain conditions through caspase-8-mediated cleavage of BID, a BH3-only Bcl-2 family member. The activated and truncated BID (tBID) then engages the intrinsic pathway for efficient apoptosis induction. To obtain preliminary information regarding the mechanisms by which d-T3 induces apoptosis in CCSCs, the activation of BID was measured after 24-hour treatment with vehicle, aspirin (5 mM), d-T3 (50 μM), and aspirin combined with d-T3 in CCSCs by Western blotting.

affinity-isolation of hCAS / hCAS binding to biotin-T3 in presence of free competitor (hCAS [1]): does not
affinity-isolation of hCAS / hCAS binding to biotin-T3 in presence of free competitor (hCAS [1]; listed as δ-tocopherol): not
SMILES: Cc1cc(O)cc2c1O[C@](C)(CCC[C@H](C)CCC[C@H](C)CCCC(C)C)CC2 [TOCOPH, δ-Tocopherol, reference compound]
effect on cell viability (MiaPaCa-2 cell): least effect

SMILES: O=C(O)CCCC[C@@H]1SC[C@@H]2NC(=O)N[C@@H]21 [biotin]
hCAS bound by streptavidin beads from lysates of treated cells (hCAS [2]): not

SMILES: CC(=O)Oc1ccccc1C(=O)O [aspirin, reference compound]
down-regulation of miRNAs compared with vehicle (number) (CCSCs [3]): 4 miRNAs
up-regulation of miRNAs compared with vehicle (number) (CCSCs [3]): 2 miRNAs
rate of polyp formation at 1-year colonoscopy (colon polyps): 17%
activation of tBID (BID): did not
reduced adenoma formation (ApcMin/+ mice): 38%
apoptosis detected by caspase 3 staining [4]: minimal to no staining
growth of human CRC stem cells (cecal tumor) (human CCSCs): inhibited
metastases of human CRC stem cells (human CCSCs; liver metastasis): inhibited

SMILES: CC(C)C[C@@H](C=O)NC(=O)[C@H](CC(C)C)NC(=O)[C@H](CC(C)C)NC(=O)OCc1ccccc1 [MG132, reference compound] (Cbz-Leu-Leu-Leu-aldehyde)
effect on d-T3 induced degradation of β-catenin (β-catenin): inhibited

SMILES: Cn1cnc(N)c2ncnc1-2 [3-methyladenine, reference compound]
effect on d-T3 induced degradation of β-catenin (β-catenin): inhibited

SMILES: COc1ccc(S(=O)(=O)NCCCC(=O)Nc2ccc(Sc3ccc(N)cc3)cc2)cc1 [BI-6C9]
effect of BID inhibitor on induction of apoptosis by aspirin (CCSCs [5]): not
effect of BID inhibitor on induction of apoptosis by d-T3 (CCSCs [5]): negates the induction of apoptosis
